Results: patent US6365603B1, “Aromatic compounds and pharmaceutical compositions containing them” (Zeneca Ltd., priority 1995, dated 2002)

System: not given
Details: not given

**Q.** For CCN(Cc1cc(Br)ccc1OCC1CC1)c1ccc(C(=O)O)nn1 [Example 3, 6-[N-(5-Bromo-2-(cyclopropylmethoxy)benzyl)-N-ethylamino]pyridazine-3-carboxylic acid], which melting point is on record?
**A.** 73 to 80 °C

**Q.** With CCCOc1ccc(Br)cc1CN(CC)c1ccc(C(=O)O)nn1 [Example 18, 6-(N-[5-Bromo-2-propoxybenzyl]-N-ethylamino)pyridazine-3-carboxylic acid] as the molecule, how does the melting point read?
**A.** 135 to 137 °C

**Q.** Which melting point does the source give for CCN(Cc1cc(Cl)ccc1OCC1CC1)c1ccc(C(N)=O)nn1 [Example 21, 6-[N-(5-Chloro-2-(cyclopropylmethoxy)benzyl)-N-ethylamino]pyridazine-3-carboxamide] here?
**A.** 177 to 178 °C

**Q.** For CCN(Cc1cc(Cl)ccc1OCC1CC1)c1ccc(C(=O)O)nn1 [Example 22, 6-[N-(5-Chloro-2-(cyclopropylmethoxy)benzyl)-N-ethylamino]pyridazine-3-carboxylic acid], which melting point is on record?
**A.** 119 to 120 °C

**Q.** For CCN(Cc1cc(Cl)ccc1OCC1CC1)c1ccc(-c2nnn[nH]2)nn1 [Example 23, 5-[6-(N-[5-Chloro-2-cyclopropylmethoxybenzyl]-N-ethylamino)pyridazin-3-yl]tetrazole], which melting point is on record?
**A.** 190 to 192 °C

System: EP1 receptors
Details: guinea pig ileum, dog fundus, cat trachea, chick ileum; cited from earlier work

**Q.** Which “block of the effect of PGE2 on tissues” value does the source give for CC(=O)NNC(=O)N1Cc2ccccc2Oc2ccc(Cl)cc21 [SC-19220] here?
**A.** blocks the effect of PGE2 on some tissues such as guinea pig ileum or dog fundus but not on other tissues such as the cat trachea or chick ileum
